Key:
Assay type in all cases: cell-based
Caco-2 cells [1] = test: L-Threonine uptake by Caco-2 cells exposed to DON; conditions: DON 10 μM alone; for % of inhibition by DON, Active transport: total minus passive
Excerpt: (§1) In order to test the ability of microalgae to reduce/prevent the effect of DON on nutrient absorption through epithelial cells, Caco-2 cells were exposed to a metabolically active dose of DON, in the absence or presence of Aurantiochytrium mangrovei FCC1325 microalgae (lyophilized microalgae “ML”, or digested lyophilized microalgae “MLD”), at a dose of 1% or 5%. Two main types of nutrients were considered (i.e. glucose and amino acids—more particularly Methionine, Lysine and Threonine), and the following measurements were carried out: • For glucose (D-Glc): passive, active (regulated by the sodium-dependent SGLT-1 transporter) and total (active+passive) absorption • For amino acids (L-Methionine, L-Lysine and L-Threonine): passive, active (regulated by sodium-dependent transport) and total (active+passive) absorption
(§2) Briefly, Caco-2 cells were cultured and seeded onto 12-well inserts, as described in Example 1, and then let to differentiate for 16-21 days post-seeding before being used, with medium changes every two days. When differentiated, Caco-2 cells were incubated or not with DON at 10 μM (apically added), in the absence or presence of 1 or 5% (v:v final dilution, apically added) of microalgae preparation (ML or MLD). Both ML and MLD powders were resuspended initially at 0.8 mg/ml in buffer (fresh culture medium of the microalgae). Caco-2 cells were incubated for 12, 24 or 48 hours before nutrient uptake was measured.
(§3) At the end of the incubation period, inserts were washed twice with PBS++. Inserts were then washed twice with uptake buffer (Ringer Hepes buffer) with or without sodium. Uptake buffer composition was: • Ringer Hepes buffer with sodium (called “+Na+”): 137 mmol/L NaCl, 5.36 mmol/L KCl, 0.4 mmol/L Na2HPO4, 0.8 mmol/L MgCl2, 1.8 mmol/L CaCl2, 20 mmol/L N-2-hydroxyethylpiperazine-N-2-ethanesulfonic acid (HEPES), pH being adjusted to pH 7.4 with NaOH; or • Ringer Hepes buffer without sodium (called “—Na+”): 137 mmol/L Choline chloride (instead of sodium chloride), 5.36 mmol/L KCl, 0.4 mmol/L K2HPO4 (instead of Na2HPO4), 0.8 mmol/L MgCl2, 1.8 mmol/L CaCl2, 20 mmol/L N-2-hydroxyethylpiperazine-N-2-ethanesulfonic acid (HEPES), pH being adjusted to pH 7.4 with KOH.
(§4) After an equilibration period of 15 min at 37° C., uptake assay was initiated by the addition of D-Glc, L-Lysine, L-Methionine or L-Threonine diluted in the appropriate Ringer Hepes buffer (400 μl) and added apically onto Caco-2 inserts (final concentration of 100 μM of D-Glc and 400 μM for amino-acids), the basolateral compartment being filled with 400 μl of buffer. Inserts were kept incubated at 37° C. during the uptake assay. After 15 minutes incubation, 30 μl of media were collected from apical or basolateral compartments and stored at −20° C. until nutrient quantification. Residual concentrations of D-Glc or L-amino acid present in the apical compartments were measured using enzyme-based quantification assay kits (Glucose Colorimetric/Fluorometric Assay Kit, Sigma-Aldrich).
(§5) Uptakes were expressed as: • Total uptake: uptake measured (either measured residual apical concentration or calculated absorbed (intracellular+basolateral) concentration) in Ringer Hepes buffer with Na+corresponding to the activity of sodium-dependent and sodium-independent transporters; • Passive uptake: uptake measured in Ringer Hepes buffer without Na+corresponding to only passive/sodium-independent transporters; • Active uptake: uptake calculated by subtracting passive uptake to total uptake.

Caco-2 cells [2] = test: Nutrient uptake by Caco-2 cells exposed to DON (overall conclusion); conditions: DON at 10 μM
Experimental: In order to test the ability of microalgae to reduce/prevent the effect of DON on nutrient absorption through epithelial cells, Caco-2 cells were exposed to a metabolically active dose of DON, in the absence or presence of Aurantiochytrium mangrovei FCC1325 microalgae (lyophilized microalgae “ML”, or digested lyophilized microalgae “MLD”), at a dose of 1% or 5%. […]
Briefly, Caco-2 cells were cultured and seeded onto 12-well inserts, as described in Example 1, and then let to differentiate for 16-21 days post-seeding before being used, with medium changes every two days. […] Caco-2 cells were incubated for 12, 24 or 48 hours before nutrient uptake was measured. […]
as §4, with “Inserts were kept incubated at 37° C. during the uptake assay.” left out, “Sigma-Aldrich). […]” for “Sigma-Aldrich).”

Caco-2 cells [3] = test: D-glucose total and passive uptake by Caco-2 cells exposed to DON; conditions: DON 10 μM alone
Excerpt: as §1, §2, §3, §4, §5

Caco-2 cells [4] = test: L-Methionine uptake by Caco-2 cells exposed to DON; conditions: for % of inhibition by DON, Passive uptake (−Na) / % of inhibition by DON, Total uptake (+Na) / % of inhibition by DON, Active transport: L-Methionine, DON 10 μM alone; for % of inhibition by DON, Active transport: total minus passive
Excerpt: as §1, §2, §3, §4, §5

[5] = test system: sodium-dependent SGLT-1 transporter; test: SGLT-1 mediated (active) D-glucose uptake by Caco-2 cells exposed to DON; conditions: DON 10 μM alone, total minus passive
Excerpt: as §1
Briefly, Caco-2 cells were cultured and seeded onto 12-well inserts, as described in Example 1, and then let to differentiate for 16-21 days post-seeding before being used, with medium changes every two days. When differentiated, Caco-2 cells were incubated or not with DON at 10 μM (apically added), in the absence or presence of 1 or 5% (v:v final dilution, apically added) of microalgae preparation (ML or MLD). […] Caco-2 cells were incubated for 12, 24 or 48 hours before nutrient uptake was measured. […]
as §4, with “Inserts were kept incubated at 37° C. during the uptake assay.” left out, “Sigma-Aldrich). […]” for “Sigma-Aldrich).”

Caco-2 cells [6] = test: L-Lysine uptake by Caco-2 cells exposed to DON; conditions: for % of inhibition by DON, Passive uptake (−Na) / % of inhibition by DON, Total uptake (+Na) / % of inhibition by DON, Active transport: L-Lysine, DON 10 μM alone; for % of inhibition by DON, Active transport: total minus passive
Excerpt: as §1, §2, §3, §4, §5

**Q.** Which “% of inhibition by DON, Passive uptake (−Na)” value (“% of inhibition by DON … (−Na)” for short) (Caco-2 cells [1]; 12 h) does the source give for `CC1=C[C@H]2O[C@@H]3[C@H](O)C[C@](C)([C@@]2(CO)[C@H](O)C1=O)[C@]31CO1` [DON, Deoxynivalenol] here?
**A.** Its value is −9.5%.

**Q.** What about the “% of inhibition by DON, Total uptake (+Na)” value (“% of inhibition … (+Na)” below) (Caco-2 cells [1]; 12 h) of the same compound?
**A.** Its value is −6.3%.

**Q.** What about the “% of inhibition by DON, Active transport” value (Caco-2 cells [1]; 12 h) of the same compound?
**A.** Its value is 56.5%.

**Q.** What about the “% of inhibition by DON … (−Na)” value (Caco-2 cells [1]; 24 h) of the same compound?
**A.** The value was −9.5%.

**Q.** What about the “% of inhibition … (+Na)” value (Caco-2 cells [1]; 24 h) of the same compound?
**A.** The value was −6.3%.

**Q.** And the “% of inhibition by DON, Active transport” value (Caco-2 cells [1]; 24 h)?
**A.** The value was 56.5%.

**Q.** And the “% of inhibition by DON … (−Na)” value (Caco-2 cells [1]; 48 h)?
**A.** The value was −16.9%.

**Q.** And the “% of inhibition … (+Na)” value (Caco-2 cells [1]; 48 h)?
**A.** The value was −14.5%.

**Q.** What about the “% of inhibition by DON, Active transport” value (Caco-2 cells [1]; 48 h) of the same compound?
**A.** Its value is 76.4%.

**Q.** What about the “effect of DON on intestinal nutrient uptake” value (Caco-2 cells [2]) of the same compound?
**A.** Its value is “alters intestinal nutrient uptake”.

**Q.** And the “% of inhibition by DON … (−Na)” value (Caco-2 cells [3]; 12 h)?
**A.** Its value is 6.4%.

**Q.** And the “% of inhibition … (+Na)” value (Caco-2 cells [3]; 12 h)?
**A.** The value was 9.3%.

**Q.** And the “% of inhibition by DON … (−Na)” value (Caco-2 cells [3]; 24 h)?
**A.** The value was 22.2%.

**Q.** What about the “% of inhibition … (+Na)” value (Caco-2 cells [3]; 24 h) of the same compound?
**A.** Its value is 29.4%.

**Q.** What about the “% of inhibition by DON … (−Na)” value (Caco-2 cells [3]; 48 h) of the same compound?
**A.** The value was 21.6%.

**Q.** What about the “% of inhibition … (+Na)” value (Caco-2 cells [3]; 48 h) of the same compound?
**A.** The value was 28.8%.

**Q.** What about the “effect of DON on L-Met active uptake” value (Caco-2 cells [4]; 12 h incubation) of the same compound?
**A.** Its value is “stimulated”.

**Q.** And the “effect of DON on active L-Met uptake” value (Caco-2 cells [4]; 48 h incubation, DON alone)?
**A.** The value was “stimulated”.

**Q.** And the “% of inhibition by DON … (−Na)” value (Caco-2 cells [4]; 12 h)?
**A.** Its value is −2.2%.

**Q.** What about the “% of inhibition … (+Na)” value (Caco-2 cells [4]; 12 h) of the same compound?
**A.** Its value is −9.6%.

**Q.** And the “% of inhibition by DON, Active transport” value (Caco-2 cells [4]; 12 h)?
**A.** The value was −256.0%.

**Q.** And the “% of inhibition by DON … (−Na)” value (Caco-2 cells [4]; 24 h)?
**A.** The value was −4.9%.

**Q.** What about the “% of inhibition … (+Na)” value (Caco-2 cells [4]; 24 h) of the same compound?
**A.** Its value is −12.9%.

**Q.** What about the “% of inhibition by DON … (−Na)” value (Caco-2 cells [4]; 48 h) of the same compound?
**A.** Its value is 1.8%.

**Q.** And the “% of inhibition … (+Na)” value (Caco-2 cells [4]; 48 h)?
**A.** The value was −4.1%.

**Q.** What about the “% of inhibition by DON, Active transport” value (Caco-2 cells [4]; 48 h) of the same compound?
**A.** Its value is −102.4%.

**Q.** And the “% of inhibition by DON, SGLT-1 mediated” value ([5]; 12 h)?
**A.** Its value is 19.2%.

**Q.** And the “% of inhibition by DON, SGLT-1 mediated” value ([5]; 24 h)?
**A.** Its value is 52.3%.

**Q.** What about the “% of inhibition by DON, SGLT-1 mediated” value ([5]; 48 h) of the same compound?
**A.** Its value is 51.4%.

**Q.** What about the “effect of DON on active L-Lys uptake” value (Caco-2 cells [6]; 48 h incubation, DON alone) of the same compound?
**A.** The value was “stimulated”.

**Q.** What about the “% of inhibition by DON … (−Na)” value (Caco-2 cells [6]; 12 h) of the same compound?
**A.** The value was −6.1%.

**Q.** What about the “% of inhibition … (+Na)” value (Caco-2 cells [6]; 12 h) of the same compound?
**A.** Its value is −5.2%.

**Q.** And the “% of inhibition by DON, Active transport” value (Caco-2 cells [6]; 12 h)?
**A.** The value was 57.5%.

**Q.** And the “% of inhibition by DON … (−Na)” value (Caco-2 cells [6]; 24 h)?
**A.** The value was −10.1%.

**Q.** What about the “% of inhibition … (+Na)” value (Caco-2 cells [6]; 24 h) of the same compound?
**A.** The value was −5.2%.

**Q.** And the “% of inhibition by DON, Active transport” value (Caco-2 cells [6]; 24 h)?
**A.** Its value is 44.2%.

**Q.** And the “% of inhibition by DON … (−Na)” value (Caco-2 cells [6]; 48 h)?
**A.** The value was −6.6%.

**Q.** What about the “% of inhibition … (+Na)” value (Caco-2 cells [6]; 48 h) of the same compound?
**A.** The value was −9.4%.

**Q.** What about the “% of inhibition by DON, Active transport” value (Caco-2 cells [6]; 48 h) of the same compound?
**A.** The value was −102.3%.

— US20220095648A1, “USE OF A THRAUSTOCHYTRID BIOMASS FOR MAINTAINING GUT BARRIER FUNCTION” (priority 2019, published 2022)
